Legend:
human myoblast cells = assay: Human myoblast differentiation (% eMyHC area), IGF2 and/or sodium butyrate; format: cell-based; details: IGF2 0.015 ug/mL, 96 h (FIG. 3B/3C)
Experimental: Human myoblast cells were treated with either PBS (vehicle), IGF2 (15 ng/mL), sodium butyrate, or IGF2 and sodium butyrate. Fresh media was added every 24 hours. After 96 hours, cells were pulsed for 2-5 hours with EdU (30 uM), ethanol fixed, stained with Hoescht 3342, immunostained for proliferation—as measured by the percent of cells staining positive for EdU (% EdU)-, and immunostained for differentiation—as measured by the increase in cellular area staining positive for embryonic myosin heavy chain (% eMyHC) relative to the negative controls, which received media and vehicle only. The total area of eMyHc positive cells was analyzed, and treated cells were compared to cells treated with the vehicle alone. […] Significance was determined by a p-value less than 0.05 by the one-way ANOVA Tukey Honest Significant Difference test.
FIG. 3C Bar graph quantitation of % Area eMyHC+ human myoblast in response to indicated treatment compared to IGF2 (15 ng/mL). Myoblast were cultured 96 h in the presence of IGF2 at indicated dose. Fresh media and IGF2 was added every 24 h.
Human myoblast cells were treated with either PBS (vehicle), IGF2 (15 ng/mL), sodium butyrate, or IGF2 and sodium butyrate. Fresh media was added every 24 hours. After 48 hours, cells were pulsed for 2-5 hours with EdU (30 uM), ethanol fixed, stained with Hoescht 3342, immunostained for proliferation […] as measured by the percent of cells staining positive for EdU (% EdU)-, and immunostained for differentiation—as measured by the increase in cellular area staining positive for embryonic myosin heavy chain (% eMyHC) relative to the negative controls, which received media and vehicle only.
Significance was determined by a p-value less than 0.05 by the one-way ANOVA Tukey Honest Significant Difference test.

DM1 human myoblast cells = assay: Fusion (% eMyHC area) of DM1 human myoblast; format: cell-based; details: 96 h for fusion
Experimental: FIG. 7A Bar graph of % EdU+ human myoblast (person) and FIG. 7B % area MyHC in response to IGF2. Myoblast were cultured 72 h for proliferation and 96 h for fusion in the presence of indicated factor. Mean∓S.D. Mean∓SD. Significant p-values (EdU: Vehicle˜IGF2: 6.8E-3, % eMyHC Area: Vehicle˜IGF2: 1.9E-4) (*p<0.05 by Students Two-Tailed T-test, n=3−6).
IGF2 was tested individually for its ability to promote proliferation and/or fusion of human muscle progenitor cells from an individual with myotonic dystrophy type 1 (hMD)—a muscular dystrophy caused by mutations in the DMPK1 gene. […] After 72 or 96 hours, cells were pulsed for 2-5 hours with EdU (30 uM), ethanol fixed, stained with Hoescht 3342, immunostained for proliferation—as measured by the percent of cells staining positive for EdU (% EdU)-, and immunostained for differentiation—as measured by the increase in cellular area staining positive for embryonic myosin heavy chain (% eMyHC) relative to the negative controls, which received media and vehicle only. Wells were imaged on a Keyence BZ-100 at 4×, the images quantified in Cell Profiler, and the statistics were computed in R. Additionally, RNA was extracted from myoblast and select transcript abundances quantified by qPCR. […]

Aged human myoblasts = assay: Myogenic transcription factor expression in aged human myoblasts; format: cell-based; details: compared to fusion media
Experimental: RNA was isolated from each well (RNeasy Mini Kit, Qiagen) and cDNA was obtained by reverse-transcription (High Capacity Reverse Transcription Kit, Thermo Fisher Scientific). Real-time quantitative PCR was performed using QuantStudio3 (Thermo Fisher).
Aged human myoblasts were cultured in well plates. […] Cells that had been cultured with IGF2 had increases in levels of MYOG at 48 hours and levels of MYOD at 72 hours.

[1] = system: 10 week old dystrophic mice (mdx); assay: D2-mdx Duchenne's muscular dystrophy model, 10 week old mice; format: in vivo; details: 150 ug/kg with 1.2 g/kg sodium butyrate subcutaneously every 24 hours, 14 days
Experimental: Between 3-6 weeks old, the skeletal muscle of mdx mice undergoes severe necrosis followed by an increase in the activation of satellite cells to promote muscle regeneration. Treatment with IGF2 fusion polypeptide described herein can improve the regeneration process and therefore muscle health. Mice were fed ad libitum and housed under controlled conditions of lighting (12-hour light/12-hour dark) and temperature (22-24° C.). Mice were allowed to acclimate for 3 days prior to the initiation of the experiment. During the acclimation period, the weight, forelimb and both limb grip strength as well as in vivo tetanic force were assessed to determine the baseline strength of each mouse. 10 week old dystrophic mice (mdx) were injected with the IGF2 fusion polypeptide with sodium butyrate subcutaneously for 14 days. At day 7, forelimb and both grip strength are measured as described in Example 4. BrdU was injected on days 12, 13 and 14. On days 13, 14 and 15, forelimb and both limb grip strength and in vivo tetanic force were tested, and an endurance test to determine max distance and max speed was performed using methods described in Example 4.
Mice were euthanized. The right tibialis anterior and gastrocnemius were collected, immersed in Tissue-TEK OCT and then flash frozen in a chilled isopentane bath precooled in liquid nitrogen and stored at −80° C. Tissue was sectioned and stained for Laminin to determine the cross sectional area (CSA) of muscle fibers, for eMyHC to measure new fiber formation and for BrdU to assess the proliferation rate. The left anterior tibialis and gastrocnemius were collected and flash frozen in liquid nitrogen for molecular analysis that include qPCR and western blot.

**Q.** How did the “% eMyHC” value (human myoblast cells) turn out when “IGF2: Human IGF2 polypeptide, amino acids 25 to 91 of SEQ ID NO. 32 (i.e. SEQ ID NO. 29)” was run?
**A.** 10.843%

**Q.** And the “% eMyHC area” value (DM1 human myoblast cells)?
**A.** 5.49%

**Q.** What about the “MYF5 −48 h, fold change” value (Aged human myoblasts; 48 h) of the same substance?
**A.** 0.409

**Q.** And the “MYOD1 −48 h, fold change” value (Aged human myoblasts; 48 h)?
**A.** 0.519

**Q.** What about the “MYF5 −72h, fold change” value (Aged human myoblasts; 72 h) of the same substance?
**A.** 0.708

**Q.** And the “MYOG −72 h, fold change” value (Aged human myoblasts; 72 h)?
**A.** 0.018

**Q.** And the bothlimb grip strength [1]?
**A.** effective at improving

**Q.** What about the forelimb grip strength [1] of the same substance?
**A.** effective at improving

**Q.** And the muscle weight [1]?
**A.** effective at improving

**Q.** What about the total work [1] of the same substance?
**A.** effective at improving

**Q.** What about the treadmill running distance [1] of the same substance?
**A.** effective at improving

**Q.** What about the “treadmill running time to exhaustion” value [1] of the same substance?
**A.** effective at improving
